Test results as given in patent US20130303564A1, “METHOD FOR TREATING A NEURODEGENERATIVE DISORDER” (RUSH UNIVERSITY MEDICAL CENTER, priority 2012, published 2013).
Like-named read-outs stand apart in the source and are kept apart here. Marks after values point to notes of the source that are not given here.

Tests used:
p21^ras [1] = details: 500 μM preincubation
Procedure: A) Mouse BV-2 microglial cells preincubated with different concentrations of FTI and GGTI were stimulated with LPS for 60 min followed by monitoring the activation of NF-κB by EMSA. B) Cells preincubated with different concentrations of FTI and GGTI were stimulated with LPS for 10 min followed by monitoring the production of superoxide. […] C) Cells were transfected with Δp21^ras, Δp21^rac or an empty vector using Lipofectamine Plus. Twenty-four hour after transfection, cells were stimulated with LPS followed by monitoring superoxide production at 15 and 30 ‘rain of stimulation. ^ap<0.001 vs control; ^bp<0.001 vs LPS-15 min; ^cp<0.001 vs LPS-30 min. D) Cells preincubated with 500 μM NaPB were stimulated with LPS. At different time points, activation of p21^ras and p21^rac was monitored. Results represent three independent experiments.
Next, we examined the effect of NaPB on the activation of p21^ras and p21^rac.
Activation of p21^ras and p21^rac: Activation of p21^ras was monitored. Briefly, after 6 h of MPTP insult, ventral midbrain was dissected out and frozen immediately on dry ice. […] Then the amount of activated p21^ras was determined in GST beads by a Western blot using a p21^ras specific antibody.

[2] = test system: RelA p65 at the mouse iNOS promoter; details: 0.5 mM, 6 h preincubation, LPS 2 h; proximal NF-κB binding site
Procedure: D) Cells preincubated with 0.5 mM NaPB for 6 h were stimulated with LPS for 2 h followed by monitoring the recruitment of RelA p65 to the mouse iNOS promoter by ChIP assay.
Therefore, next we examined the effect of NaPB on the recruitment of p65 to the proximal NF-κB binding site of the iNOS promoter.
Chromatin immunoprecipitation (CUP): ChIP assays were performed using a ChIP assay kit (Upstate Biotechnology, Lake Placid, N.Y.). Briefly, 2×10^6 microglial cells preincubated with gemfibrozil for 6 h were stimulated with LPS. After 3 h of stimulation, cells were fixed by adding formaldehyde (1% final concentration), and cross-linked adducts were resuspended and sonicated, resulting in an average chromatin fragment size of 400 bp. ChIP was performed on the cell lysate by overnight incubation at 4° C. with 2 μg of antibodies against p65 followed by incubation with protein G agarose (Santa Cruz Biotechnology) for 2 h. The beads were washed and incubated with elution buMr. To reverse the cross-linking and purify the DNA, precipitates were incubated in a 65° C. incubator overnight and digested with proteinase K. DNA samples were then purified, precipitated, and precipitates were washed with 75% ethanol, air-dried, and resuspended in TE buffer.

phospho-IκBα = details: 0.5 mM, 6 h preincubation, LPS 1 μg/ml
Procedure: (A) BV-2 microglial cells preincubated with 0.5 mM NaPB for 6 h were stimulated with 1 μg/ml LPS. At different minute of stimulation, the level of phospho-1κBα was monitored by Western blot.
(§7) Activation of NF-κB was monitored by IκBαphosphorylation, DNA binding activity by EMSA and transcriptional activity by reporter assays.

p21^ras [3] = test system: p21^ras
Procedure: A) Mice were treated with NaPB (200 mg/kg body wt/d.) via gavage from 1 d prior to MPTP injection. Six h after the last injection of MPTP, activation of p21^ras and p21^rac was monitored in ventral midbrain tissues. Experiment was repeated three times each time using two animal in each group. […] Results represent three independent experiments.
A) Mice were treated with NaPB (200 mg/kg body wt/d) via gavage from 1 d prior to MPTP injection. At different h of MPTP insult, nigral punches from mice were pooled together and analyzed for the activation of p21′ (A) and the expression of iNOS mRNA (B, RT-PCR; C, real-time PGR). Experiments were repeated three times each time using two animals in each group. ^ap<0.001 vs control (Oh)-iNOS.
Therefore, in order to delineate whether glial activation-associated events happen before or after the loss of dopaminergic neurons, we performed a time-course study to monitor nigral activation of p21^ras and expression of iNOS and striatal loss of dopamine in MPTP-intoxicated mice, Micropunches from the nigra were used for monitoring p21^ras and iNOS.
Animals and MPTP intoxications: Six- to eight-week old C57BL/6 mice were purchased from Harlan, Indianapolis, Ind. […]
Activation of p21^ras and p21^rac: Activation of p21^ras was monitored. […] Then the amount of activated p21^ras was determined in GST beads by a Western blot using a p21^ras specific antibody.

p21^rac = details: 500 μM preincubation
Procedure: D) Cells preincubated with 500 μM NaPB were stimulated with LPS. At different time points, activation of p21^ras and p21^rac was monitored. Results represent three independent experiments.

NF-κB = experiment: DNA-binding activity of NF-κB by EMSA in BV-2 microglial cells; format: cell-based, mouse; details: NaPB different concentrations, 6 h preincubation, LPS 1 h
Procedure: Results represent three independent experiments.
as §7
Electrophoretic Mobility Shift Assay (EMSA): Nuclear extracts were prepared and EMSA was carried out. […] Six-micrograms of nuclear extract was incubated with binding buffer and with IR-labeled probe for 20 min. Subsequently, samples were separated on a 6% polyacrylamide gel in 0.25× TBE buffer (Tris borate-EDTA) and analyzed by Odyssey Infrared Imaging System (LI-COR Biosciences).

TNF-α = test system: TNF-α
Procedure: (§1) Activated microglia and astroglia are known to produce excessive amount of NO having the potential of damaging neurons in neurodegenerative disorders. We investigated the effect of NaPB on the expression of iNOS in microglia. LPS is a prototype inducer of various proinflammatory molecules in different cell types including mouse microglia. Therefore, primary mouse microglia preincubated with different doses of NaPB for 6 h were stimulated with LPS under serum-free condition. […] We used trichostatin A (TSA) and sodium butyrate (NaBu) for this purpose.
(§2) Isolation of Mouse Microglia: Microglia were isolated from mixed glial cultures. Briefly, on day 7-9, the mixed glial cultures were washed three times with Dulbecco's modified Eagle's medium/F-12 and subjected to shaking at 240 rpm for 2 h at 37° C. on a rotary shaker. The floating cells were washed and seeded on to plastic tissue culture flasks and incubated at 37° C. for 1 h. The attached cells were seeded onto new plates for further studies. […] Mouse BV-2 microglial cells (kind gift from Virginia Bocchini of Universityof Perugia) were also maintained and induced as indicated above.

IL-1β = test system: IL-1β
Procedure: as §1, §2

GFAP = test system: GFAP
Procedure: (§3) A) Mice were treated with NaPB (200 mg/kg body wt/d) from 3 h after the last injection of MPTP. Twenty-four h after the last injection of MPTP, ventral midbrain sections were immunostained for GFAP and CD11b. Results represent analyses of four nigral sections (two images per slide) from each of four mice. The mRNA expression GFAP and CD11b was analyzed by semi-quantitative RT-PCR (B) and quantitative real-time PCR (C).
(§4) Recently activation of glial cells is being considered as a pathological hallmark in PD and other neurodegenerative disorders. Increased expression of CD11b, the beta-integrin marker of microglia, represents microglial activation during neurodegenerative inflammation. Similarly, upon activation, astrocytes also express enhanced level of GFAP, which is considered as a marker protein for astrogliosis. We investigated if NaPB could attenuate MPTP-induced activation of glial cells in vivo in the nigra of mice.
(§5) Semi-quantitative RT-PCR analysis for proinflammatory molecules (iNOS, IL-1β and TNF-α) and glial cell markers: Total RNA was isolated from ventral midbrain using Ultraspec-II RNA reagent (Biotecx .Laboratories, Inc., Houston, Tex.) following manufacturer's protocol. To remove any contaminating genomic DNA, total RNA was digested with DNase. RT-PCR was carried out using a RT-PCR kit (Clontech., Mountain View, Calif.) and following primers.
(§6) Real-time PCR analysis: It was performed in the ABI-Prism7700 sequence detection system (Applied Biosystems, Foster City, Calif.) using TaqMan Universal Master mix and optimized concentrations of FAM-labeled probes and primers.

CD11b = test system: CD11b
Procedure: as §3, §4, §5, §6

cholesterol = experiment: Serum cholesterol in male C57/BL6 mice; format: in vivo, mouse; details: 200 mg/kg body wt/d, oral, 7 d
Procedure: Mice (6-8 wk old) were treated with NaPB (200 mg/kg body wt/d) and pravastatin (1 mg/kg body wt/d) separately via gavage for 7 d followed by quantification of cholesterol in serum using a simple fluorometric method.
Intermediates of the mevalonate pathway play a role in the expression of iNOS and proinflammatory cytokines in glial cells. End product of the mevalonate pathway is cholesterol and therefore, we investigated if NaPB had any effect on the level of cholesterol in vivo in mice.
Assay of cholesterol in serum: Total cholesterol was quantified irr serum by using an Amplex Red Cholesterol Assay kit from Invitrogen. Briefly, cholesterol was oxidized by cholesterol oxidase to yield H2O2, which then reacted with 10-acetyl-3,7 dihydroxyphenoxazine (Amplex Red). In the presence of horseradish peroxidase (HRP), this Amplex Red:H2O2 complex produced highly fluorescent resorufin, which was detected by fluorometry.

[4] = LPS + NaPB (0.1 mM), 6 hrs preincubation, LPS 24 hrs, supernatant ELISA
[5] = LPS + NaPB (0.2 mM), 6 hrs preincubation, LPS 24 hrs, supernatant ELISA
[6] = LPS + NaPB (0.5 mM), 6 hrs preincubation, LPS 24 hrs, supernatant ELISA
[7] = 200 mg/kg body wt/d from 3 h after last MPTP, RT-PCR, real-time PCR
[8] = 200 mg/kg body wt/d oral from 3 h after last MPTP, 24 h, immunofluorescence

In the case of sodium phenylbutyrate [NaPB], the “LPS-induced activation of p21^ras” value (p21^ras [1]) was “markedly suppressed”, the “recruitment of p65 to the iNOS promoter” value [2] was “inhibited” and the “LPS-induced phosphorylation of IκBα” value (phospho-IκBα) was “inhibited”. The “activation of p21^ras in the nigra, time course” value (p21^ras [3]; 200 mg/kg body wt/d gavage from 1 d prior to MPTP, all time points tested (up to 24 h)) was “markedly inhibited”, the “MPTP-induced activation of p21^ras in the nigra” value (p21^ras [3]; 200 mg/kg body wt/day gavage from 1 d prior to MPTP, 6 h after last MPTP) was “much decreased activation” and the “LPS-induced activation of p21^rac” value (p21^rac) was “markedly suppressed”. For the same substance, the “LPS-induced DNA-binding activity of NF-κB” value (NF-κB) was “inhibited”, the TNF-α production (TNF-α; [4]) was 16.8 ± 1.5 ng/mg protein/24 hr and the TNF-α production (TNF-α; [5]) was 12.7 ± 0.8 ng/mg protein/24 hr. For the same substance, the TNF-α production (TNF-α; [6]) was 8.6 ± 1.1^a ng/mg protein/24 hr, the TNF-α production (TNF-α; NaPB (0.5 mM) only, no LPS) was 0 ng/mg protein/24 hr and the “production of TNF-α protein in activated microglia” value (TNF-α; Table 1) was “dose-dependently inhibited”. For the same substance, the IL-1β production (IL-1β; [4]) was 9.9 ± 1.4 ng/mg protein/24 hr, the IL-1β production (IL-1β; [5]) was 7.5 ± 1.1 ng/mg protein/24 hr and the IL-1β production (IL-1β; [6]) was 5.3 ± 0.6^a ng/mg protein/24 hr. For the same substance, the IL-1β production (IL-1β; NaPB (0.5 mM) only, no LPS) was 0 ng/mg protein/24 hr, the “production of IL-1β protein in activated microglia” value (IL-1β; Table 1) was “dose-dependently inhibited” and the “MPTP-induced mRNA expression of GFAP in the nigra” value (GFAP; [7]) was “suppressed”. For the same substance, the “GFAP protein expression in the nigra” value (GFAP; [8]) was “inhibition”, the “MPTP-induced mRNA expression of CD11b in the nigra” value (CD11b; [7]) was “suppressed” and the “CD11b protein expression in the nigra” value (CD11b; [8]) was “inhibition”. The “reduction of the level of cholesterol in serum” value (cholesterol) was “about 30%”.
